Data on 2 compounds can be found in patent publication US11976073B2, “Bicyclic amines as CDK2 inhibitors” (Incyte Corporation, priority 2021, dated 2024).

For one test, the target named is T1, CDK2/Cyclin E1 (Homo sapiens, UniProt P24941).
T1 construct: utilize full-length human CDK2 co-expressed as N-terminal GST-tagged protein; GST (N); purchased Carna 04-165; host or cells: baculovirus expression system
Description: CDK2/Cyclin E1 HTRF enzyme activity assay. The note with it: 1 mM ATP. It is filed as biochemical. Here is the method: Example A. CDK2/Cyclin E1 HTRF Enzyme Activity Assay
CDK2/Cyclin E1 enzyme activity assays utilize full-length human CDK2 co-expressed as N-terminal GST-tagged protein with FLAG-Cyclin E1 in a baculovirus expression system (Carna Product Number 04-165). Assays were conducted in white 384-well polystyrene plates in a final reaction volume of 8 μL. CDK2/Cyclin E1 (0.25 nM) was incubated with the compounds of the Examples (40 nL serially diluted in DMSO) in the presence of ATP (50 μM or 1 mM) and 50 nM ULight™-labeled eIF4E-binding protein 1 (THR37/46) peptide (PerkinElmer) in assay buffer (containing 50 mM HEPES pH 7.5, 1 mM EGTA, 10 mM MgCl2, 2 mM DTT, 0.05 mg/mL BSA, and 0.01% Tween 20) for 60 minutes at room temperature. The reactions were stopped by the addition of EDTA and Europium-labeled anti-phospho-4E-BP1 antibody (PerkinElmer), for a final concentration of 15 mM and 1.5 nM, respectively. HTRF signals were read after 1 hour at room temperature on a PHERAstar FS plate reader (BMG Labtech). Data was analyzed with IDBS XLFit and GraphPad Prism 5.0 software using a three or four parameter dose response curve to determine IC50 for each compound.
For orientation: In TR-FRET formats the signal depends on donor and acceptor labels being close together.

Another test concerns the target CDK2 (Homo sapiens, UniProt P24941). Description: Enzymatic binding data against CDK2 (comparison of isomeric peaks). It counts as biochemical. To be noted: Peak 1 vs Peak 2 of Example 2, TFA salts. How it is done: To a solution of 6-(1-(1-ethoxyethyl)-1H-pyrazol-4-yl)-5-(1-(trifluoromethyl)cyclobutoxy)-[1,2,4]triazolo[…] (20 mg, 0.05 mmol) and 4-(methylsulfonyl)cyclohexan-1-one (26 mg, 0.15 mmol) in DCE (0.8 mL) was added TFA (0.2 mL) and sodium triacetoxyborohydride (31 mg, 0.15 mmol) and the resulting solution was stirred at 60° C. After 4 h, a second aliquot of 4-(methylsulfonyl)cyclohexan-1-one (13 mg, 0.08 mmol) and sodium triacetoxyborohydride (15 mg, 0.08 mmol) was added and stirring was continued overnight at 60° C. The volatiles were removed and the residue was dissolved in CH3CN and purified by prep-HPLC (Sunfire C18 column, eluting with a gradient of 21% to 39% acetonitrile/water containing 0.1% TFA over 12 minutes at a flow rate of 60 mL/min) to afford two isomeric peaks as their TFA salts. Peak 1 eluted at 8.8 min and Peak 2 eluted at 9.9 min. […] LC-MS calculated for C20H25F3N7O3S (M+H)^+: m/z=500.2; found 500.2.

Where only a bound is given, the exact number is not on record here.

Regarding `CC(C)Oc1c(-c2cn[nH]c2)ncn2nc(NC3CCC(S(C)(=O)=O)CC3)nc12` (single isomer, unassigned) [Example 1, 8-Isopropoxy-N-(4-(methylsulfonyl)cyclohexyl)-7-(1H-pyrazol-4-yl)-[1,2,4]triazolo[1,5-c]pyrimidin-2-amine], at CDK2/Cyclin E1, the half-maximal inhibitory concentration (IC50) was ≤ 10 nM. Take `CS(=O)(=O)C1CCC(Nc2nc3cnc(-c4cn[nH]c4)c(OC4(C(F)(F)F)CCC4)n3n2)CC1` (single isomer, unassigned) [Example 2, N-(4-(Methylsulfonyl)cyclohexyl)-6-(1H-pyrazol-4-yl)-5-(1-(trifluoromethyl)cyclobutoxy)-[1,2,4]triazolo[1,5-a]pyrazin-2-amine]: the IC50 on CDK2/Cyclin E1 is ≤ 10 nM. Also, the “relative activity of the isomeric peaks against CDK2” value at CDK2 is “more active isomer”.

As a reminder, the IC50 is the concentration that gives 50% inhibition.
